Experimental data as given in US9315490B2, “2,5-substituted pyrimidines” (Grünenthal GmbH, priority 2014, dated 2016).

Target: T1, human PDE4B1 (Homo sapiens, UniProt Q07343)
T1 construct: host or cells: Sf9 cells
Experiment: cAMP HTRF assay to determine the activity of hPDE4B1
Format: biochemical
Settings: inhibition of PDE4B at a test concentration of 1 μM; for Inhibition in %: 1 µM
Protocol: Biological Testing cAMP HTRF® Assay to Determine the Activity of hPDE4B1
The inhibiting effect of the compounds on the enzyme activity of human PDE4B1 was measured by the quantification of 5′-adenosine monophosphate (5′-AMP), which is formed from 3′,5′-cyclic adenosine monophosphate (cAMP). Human recombinant enzyme, expressed in Sf9 cells, and the HTRF (homogeneous time-resolved fluorescence) detection method were used in the assay.
The test compound or water (control) was mixed with the human recombinant PDE4B1 enzyme (4.8 U) in a buffer consisting of 44.4 mM tris-HCl, 5.28 mM MgCl2, 2.64 mM DTT and 0.044% Tween 20 (pH 7.8). After adding the cAMP enzyme substrate (final concentration 40 nM), the mixture was incubated for 30 minutes at room temperature. Then a fluorescence acceptor (Dye2 marked with cAMP), a fluorescence donor (anti-cAMP antibody marked with a europium cryptate) and the non-specific phosphodiesterase inhibitor IBMX (3-isobutyl-1-methylxanthine; final concentration 1 mM) were added. After 60 minutes the fluorescence transfer, which correlates with the amount of remaining cAMP, was measured with a microplate reader (Rubystar, BMG) at λex=337 nm, λem=620 nm and λem=665 nm. The enzyme activity was calculated from the quotient formed from the measured signal at 665 nm and that at 620 nm. The result was expressed as the percentage inhibition of enzyme activity of the control (without PDE4 inhibitor). The enzyme was omitted for measurement of the basal control. IC50 values (IC50=concentration causing a half-maximal inhibition of control specific activity) were derived from dose response measurements with eight different concentrations (n=2; N=1-3).
Literature: N. Saldou et al., Comparison of recombinant human PDE4 isoforms: interaction with substrate and inhibitors, Cell. Signal. Vol. 10, No. 6, 427-440, 1998

T1 sequence (Q07343 whole entry): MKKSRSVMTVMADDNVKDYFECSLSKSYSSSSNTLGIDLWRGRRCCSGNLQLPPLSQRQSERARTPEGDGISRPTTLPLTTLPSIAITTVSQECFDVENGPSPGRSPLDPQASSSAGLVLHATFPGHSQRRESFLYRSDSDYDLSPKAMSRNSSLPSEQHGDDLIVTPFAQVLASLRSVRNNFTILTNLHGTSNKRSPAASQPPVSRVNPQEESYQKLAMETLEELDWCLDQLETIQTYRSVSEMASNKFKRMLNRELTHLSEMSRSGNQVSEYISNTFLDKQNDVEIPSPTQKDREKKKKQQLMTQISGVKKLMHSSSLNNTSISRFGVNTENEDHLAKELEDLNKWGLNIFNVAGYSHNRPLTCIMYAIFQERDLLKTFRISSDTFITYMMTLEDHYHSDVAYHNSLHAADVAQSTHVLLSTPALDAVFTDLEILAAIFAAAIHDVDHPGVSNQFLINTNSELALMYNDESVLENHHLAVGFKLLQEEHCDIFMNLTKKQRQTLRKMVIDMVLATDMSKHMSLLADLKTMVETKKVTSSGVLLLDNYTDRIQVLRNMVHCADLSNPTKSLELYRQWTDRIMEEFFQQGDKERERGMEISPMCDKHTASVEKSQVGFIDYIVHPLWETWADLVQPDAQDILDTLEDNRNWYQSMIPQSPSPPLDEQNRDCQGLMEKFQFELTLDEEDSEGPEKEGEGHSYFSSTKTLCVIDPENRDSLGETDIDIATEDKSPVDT

inhibition at 1 µM	Inhibition in %	SMILES
87%	–	CN(CCC(=O)O)C(=O)c1ccc2c([S+](C)[O-])cn(-c3ncc(-c4ccccc4F)cn3)c2c1 (centres unmarked) [Example 369, 3-(1-(5-(2-Fluorophenyl)pyrimidin-2-yl)-N-methyl-3-(methylsulfinyl)-1H-indole-6-carboxamido)propanoic acid]
57%	–	C[S+]([O-])c1cn(-c2ncc(-c3ccccc3)cn2)c2cc(C(=O)N3C[C@H]4C[C@@H]3CN4)ccc12 (stereo partly drawn) [Example 232, (1R,4R)-2,5-Diazabicyclo[2.2.1]heptan-2-yl(3-(methylsulfinyl)-1-(5-phenylpyrimidin-2-yl)-1H-indol-6-yl)methanone]
90%	–	C[C@@H]1COCCN1C(=O)c1ccc2c([S+](C)[O-])cn(-c3ncc(-c4ccccc4F)cn3)c2c1 (stereo partly drawn) [Example 179, (1-(5-(2-Fluorophenyl)pyrimidin-2-yl)-3-(methylsulfinyl)-1H-indol-6-yl)((R)-3-methylmorpholino)methanone]
82%	–	C[S+]([O-])c1cn(-c2ncc(-c3c(F)cccc3F)cn2)c2cc(C(=O)N3CCOCC3)ccc12 (centres unmarked) [Example 44, (1-(5-(2,6-Difluorophenyl)pyrimidin-2-yl)-3-(methylsulfinyl)-1H-indol-6-yl)(morpholino)methanone]
–	94%	Cc1cccc(-c2cnc(-n3cc([S+](C)[O-])c4ccc(C(=O)N5CCNC(=O)C5)cc43)nc2)c1 (single isomer, unassigned) [Example 216, 4-(3-(Methylsulfinyl)-1-(5-(m-tolyl)pyrimidin-2-yl)-1H-indole-6-carbonyl)piperazin-2-one]
99%	–	COc1ccc(F)c(-c2cnc(-n3cc([S+](C)[O-])c4ccc(C(=O)N5CC[C@@H](N)C5)cc43)nc2)c1 (stereo partly drawn) [Example 226, ((R)-3-Aminopyrrolidin-1-yl)(1-(5-(2-fluoro-5-methoxyphenyl)pyrimidin-2-yl)-3-(methylsulfinyl)-1H-indol-6-yl)methanone]
36%	–	CS(=O)(=O)c1cn(-c2ncc(-c3ccccc3)cn2)c2cc(C(=O)N3C[C@H]4C[C@@H]3CO4)ccc12 [Example 237, (1R,4R)-2-Oxa-5-azabicyclo[2.2.1]heptan-5-yl(3-(methylsulfonyl)-1-(5-phenylpyrimidin-2-yl)-1H-indol-6-yl)methanone]
68%	–	C[S+]([O-])c1cn(-c2ncc(-c3ccccc3F)cn2)c2cc(C(=O)N3CCOC(C)(C)C3)ccc12 (centres unmarked) [Example 383, (2,2-Dimethylmorpholino)(1-(5-(2-fluorophenyl)pyrimidin-2-yl)-3-(methylsulfinyl)-1H-indol-6-yl)methanone]
–	120%	CC(O)c1cn(-c2ncc(-c3ccccc3F)cn2)c2cc(C(=O)N3CCOCC3)ccc12 (single isomer, unassigned) [Example 253, (1-(5-(2-Fluorophenyl)pyrimidin-2-yl)-3-(1-hydroxyethyl)-1H-indol-6-yl)(morpholino)methanone]
108%	–	C[S+]([O-])c1cn(-c2ncc(-c3ccccc3F)cn2)c2cc(C(=O)N3CC[C@@H](N)C3)ccc12 (some centres unmarked) [Example 68]
107%	–	COc1ccc(F)c(-c2cnc(-n3cc([S+](C)[O-])c4ccc(C(=O)N5CCOCC5)cc43)nc2)c1 (single isomer, unassigned) [Example 160, (1-(5-(2-Fluoro-5-methoxyphenyl)pyrimidin-2-yl)-3-(methylsulfinyl)-1H-indol-6-yl)(morpholino)methanone]
–	81%	COc1cccc(-c2cnc(-n3cc([S+](C)[O-])c4ccc(C(=O)N5CCOCC5)cc43)nc2)c1 (single isomer, unassigned) [Example 157, (1-(5-(3-Methoxyphenyl)pyrimidin-2-yl)-3-(methylsulfinyl)-1H-indol-6-yl)(morpholino)methanone]
78%	–	C[S+]([O-])c1cn(-c2ncc(-c3ccccc3F)cn2)c2cc(C(=O)N3CCC(O)CC3)ccc12 (centres unmarked) [Example 73, (1-(5-(2-Fluorophenyl)pyrimidin-2-yl)-3-(methylsulfinyl)-1H-indol-6-yl)(4-hydroxypiperidin-1-yl)methanone]
–	93%	C[S+]([O-])c1cn(-c2ncc(-c3ccccc3F)cn2)c2cc(C(=O)N3CCOCC3)ccc12 (single isomer, unassigned) [Example 166, (1-(5-(2-Fluorophenyl)pyrimidin-2-yl)-3-(methylsulfinyl)-1H-indol-6-yl)(morpholino)methanone]
23%	–	C[S+]([O-])c1cn(-c2ncc(-c3ccccc3F)cn2)c2cc(C(=O)N3CCC4(COC4)C3)ccc12 (centres unmarked) [Example 370, (1-(5-(2-Fluorophenyl)pyrimidin-2-yl)-3-(methylsulfinyl)-1H-indol-6-yl)(2-oxa-6-azaspiro[3.4]octan-6-yl)methanone]
10%	–	CCOC(=O)C1CCN(C(=O)c2ccc3c([S+](C)[O-])cn(-c4ncc(-c5ccccc5F)cn4)c3c2)CC1 (centres unmarked) [Example 393, Ethyl 1-(1-(5-(2-fluorophenyl)pyrimidin-2-yl)-3-(methylsulfinyl)-1H-indole-6-carbonyl)piperidine-4-carboxylate]
78%	–	CC1CCCN(C(=O)c2ccc3c([S+](C)[O-])cn(-c4ncc(-c5ccccc5F)cn4)c3c2)C1 (centres unmarked) [Example 362, (1-(5-(2-Fluorophenyl)pyrimidin-2-yl)-3-(methylsulfinyl)-1H-indol-6-yl)(3-methylpiperidin-1-yl)methanone]
–	92%	C[S+]([O-])c1cn(-c2ncc(-c3ccccc3)cn2)c2cc(C(=O)N3CCOCC3)ccc12 (single isomer, unassigned) [Example 164, (3-(Methylsulfinyl)-1-(5-phenylpyrimidin-2-yl)-1H-indol-6-yl)(morpholino)methanone]
90%	–	C[S+]([O-])c1cn(-c2ncc(-c3cccc(S(C)(=O)=O)c3)cn2)c2cc(C(=O)N3CCOCC3)ccc12 (centres unmarked) [Example 36, (3-(Methylsulfinyl)-1-(5-(3-(methylsulfonyl)phenyl)pyrimidin-2-yl)-1H-indol-6-yl)(morpholino)methanone]
40%	–	COCCN(C)C(=O)c1ccc2c([S+](C)[O-])cn(-c3ncc(-c4ccccc4F)cn3)c2c1 (centres unmarked) [Example 65, 1-(5-(2-Fluorophenyl)pyrimidin-2-yl)-N-(2-methoxyethyl)-N-methyl-3-(methylsulfinyl)-1H-indole-6-carboxamide]
95%	–	CC(O)c1cn(-c2ncc(-c3ccccc3)cn2)c2cc(C(=O)N3CCOCC3)ccc12 (single isomer, unassigned) [Example 254, (3-(1-Hydroxyethyl)-1-(5-phenylpyrimidin-2-yl)-1H-indol-6-yl)(morpholino)methanone]
99%	–	C[S+]([O-])c1cn(-c2ncc(-c3ccc(O)cc3)cn2)c2cc(C(=O)N3CCOCC3)ccc12 (centres unmarked) [Example 86, (1-(5-(4-Hydroxyphenyl)pyrimidin-2-yl)-3-(methylsulfinyl)-1H-indol-6-yl)(morpholino)methanone]
8%	–	CN(C)C1CCN(C(=O)c2ccc3c([S+](C)[O-])cn(-c4ncc(-c5ccccc5F)cn4)c3c2)CC1 (centres unmarked) [Example 387, (4-(Dimethylamino)piperidin-1-yl)(1-(5-(2-fluorophenyl)pyrimidin-2-yl)-3-(methylsulfinyl)-1H-indol-6-yl)methanone]
61%	–	C[S+]([O-])c1cn(-c2ncc(-c3ccncc3)cn2)c2cc(C(=O)N3CCOCC3)ccc12 (centres unmarked) [Example 47, (3-(Methylsulfinyl)-1-(5-(pyridin-4-yl)pyrimidin-2-yl)-1H-indol-6-yl)(morpholino)methanone]
98%	–	COc1cccc(-c2cnc(-n3cc(S(C)(=O)=O)c4ccc(C(=O)N5CCOCC5)cc43)nc2)c1 [Example 159, (1-(5-(3-Methoxyphenyl)pyrimidin-2-yl)-3-(methylsulfonyl)-1H-indol-6-yl)(morpholino)methanone]
–	63%	C[S+]([O-])c1cn(-c2ncc(-c3ccccc3F)cn2)c2cc(C(=O)N3CCOC(C)(C)C3)ccc12 (centres unmarked) [Example 74, (2,2-Dimethylmorpholino)(1-(5-(2-fluorophenyl)pyrimidin-2-yl)-3-(methylsulfinyl)-1H-indol-6-yl)methanone]
95%	–	CS(=O)(=O)c1cn(-c2ncc(-c3ccccc3F)cn2)c2cc(C(=O)N3CC[C@@H](N)C3)ccc12 [Example 69, (R)-(3-Aminopyrrolidin-1-yl)(1-(5-(2-fluorophenyl)pyrimidin-2-yl)-3-(methylsulfonyl)-1H-indol-6-yl)methanone]
91%	–	C[S+]([O-])c1cn(-c2ncc(-c3ccccn3)cn2)c2cc(C(=O)N3CCOCC3)ccc12 (centres unmarked) [Example 50, (3-(Methylsulfinyl)-1-(5-(pyridin-2-yl)pyrimidin-2-yl)-1H-indol-6-yl)(morpholino)methanone]
115%	–	COc1cccc(-c2cnc(-n3cc([S+](C)[O-])c4ccc(C(=O)N5CCOCC5)cc43)nc2)c1 (centres unmarked) [Example 45, (1-(5-(3-Methoxyphenyl)pyrimidin-2-yl)-3-(methylsulfinyl)-1H-indol-6-yl)(morpholino)methanone]
